We go through 30 molecules from patent US7544694B2, “Substituted diaza-spiro-[5.5]-undecane derivatives and their use as neurokinin antagonists” (Janssen Pharmaceutica N.V., priority 2004, dated 2009).

Common to all, as to format: cell-based
One experiment concerns the target T1, NK2 (Homo sapiens, UniProt P21452).
T1 sequence (P21452 1-398): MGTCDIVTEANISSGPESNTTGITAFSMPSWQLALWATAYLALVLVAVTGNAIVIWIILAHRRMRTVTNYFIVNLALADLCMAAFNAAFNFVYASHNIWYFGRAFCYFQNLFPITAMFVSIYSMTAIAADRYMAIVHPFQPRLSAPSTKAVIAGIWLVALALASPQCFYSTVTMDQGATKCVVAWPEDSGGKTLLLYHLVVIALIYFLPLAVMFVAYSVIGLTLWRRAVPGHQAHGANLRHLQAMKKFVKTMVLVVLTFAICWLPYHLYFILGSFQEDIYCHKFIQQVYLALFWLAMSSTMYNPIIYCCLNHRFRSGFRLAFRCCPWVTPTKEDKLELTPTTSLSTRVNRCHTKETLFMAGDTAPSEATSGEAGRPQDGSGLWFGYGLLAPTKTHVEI
Kind of experiment: Signal transduction (ST), intracellular Ca++ (FLIPR), NK2. The following applies: antagonist, read-out: NK2 pIC50 (converted).

The target of another experiment is NK1 (Homo sapiens, UniProt P25103). Kind of experiment: Signal transduction (ST), intracellular Ca++ (FLIPR), functional NK1 antagonistic activity. Particulars: antagonist, read-out: NK1 pIC50 (converted). In a few lines:
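Confluent cells were loaded with 2 μM Fluo3 for 1 h at 37° C, then washed into Krebs buffer pH 7.4 with 1.25 mM CaCl2 and 2.5 mM probenecid. Antagonists were preincubated 20 min at RT before agonist addition. Peak Ca++ transients were read by FLIPR, with EC50 or IC50 from sigmoidal non-linear regression.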

Another experiment has as its target T2, NK3 (Homo sapiens, UniProt P29371).
T2 sequence (P29371 1-465): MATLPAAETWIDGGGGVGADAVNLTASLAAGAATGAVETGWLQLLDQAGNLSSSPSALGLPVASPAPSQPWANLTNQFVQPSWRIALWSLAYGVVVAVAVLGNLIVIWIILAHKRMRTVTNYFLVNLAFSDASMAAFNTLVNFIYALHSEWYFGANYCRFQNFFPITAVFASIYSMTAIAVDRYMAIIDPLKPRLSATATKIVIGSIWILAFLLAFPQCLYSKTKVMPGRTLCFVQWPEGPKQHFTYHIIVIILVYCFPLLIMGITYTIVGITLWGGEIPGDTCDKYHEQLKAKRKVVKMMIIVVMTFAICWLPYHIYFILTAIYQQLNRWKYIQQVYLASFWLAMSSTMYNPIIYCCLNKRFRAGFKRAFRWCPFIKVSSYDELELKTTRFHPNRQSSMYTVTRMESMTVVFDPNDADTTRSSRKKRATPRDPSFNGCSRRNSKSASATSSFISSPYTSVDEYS
Kind of experiment: Signal transduction (ST), intracellular Ca++ (FLIPR), NK3. The following applies: antagonist, read-out: NK3 pIC50 (converted).

Chain of NK1 (P25103 whole entry): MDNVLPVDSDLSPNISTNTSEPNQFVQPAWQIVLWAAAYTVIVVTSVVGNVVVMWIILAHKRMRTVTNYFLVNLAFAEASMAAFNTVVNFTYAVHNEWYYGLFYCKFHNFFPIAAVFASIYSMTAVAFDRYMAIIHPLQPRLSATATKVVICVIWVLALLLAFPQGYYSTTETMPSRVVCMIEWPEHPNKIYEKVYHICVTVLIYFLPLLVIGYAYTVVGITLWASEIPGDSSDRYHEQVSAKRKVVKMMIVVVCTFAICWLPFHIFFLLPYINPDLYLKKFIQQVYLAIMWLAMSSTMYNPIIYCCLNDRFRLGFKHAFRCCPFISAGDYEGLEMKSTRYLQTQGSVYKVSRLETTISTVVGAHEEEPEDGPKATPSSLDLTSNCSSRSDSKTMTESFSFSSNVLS

For `N#Cc1ccc(S(=O)(=O)N2CCC3(CCN(C4CCN(C(=O)c5cc(C(F)(F)F)cc(C(F)(F)F)c5)C(Cc5ccccc5)C4)CC3)CC2)cc1` (stereo not drawn) [Compound 119], the IC50 on NK2 was 1070 nM; on NK1, 66.1 nM; on NK3 it was 1580 nM.
Take `COc1ccc(S(=O)(=O)N2CCC3(CCN([C@H]4CCN(C(=O)c5cc(C(F)(F)F)cc(C(F)(F)F)c5)[C@H](Cc5ccccc5)C4)CC3)CC2)cc1` [Compound 121]: the IC50 was 1200 nM at NK2, 112 nM at NK1 and 3720 nM on NK3.
As to `COc1ccc(S(=O)(=O)N2CCC3(CCN([C@H]4CCN(C(=O)c5cc(C(F)(F)F)cc(C(F)(F)F)c5)[C@H](Cc5ccccc5)C4)CC3)CC2)cc1OC` [Compound 122], the values for the IC50 at NK2, on NK1 and on NK3 were 3980 nM, 44.7 nM and more than 10000 nM, respectively.
For `COc1ccc(OC)c(S(=O)(=O)N2CCC3(CCN([C@H]4CCN(C(=O)c5cc(C(F)(F)F)cc(C(F)(F)F)c5)[C@H](Cc5ccccc5)C4)CC3)CC2)c1` [Compound 123], the values for the IC50 on NK2, at NK1 and on NK3 were approximately 4070 nM, 70.8 nM and more than 10000 nM, respectively.
Turning to `CC(=O)Nc1ccc(S(=O)(=O)N2CCC3(CCN([C@H]4CCN(C(=O)c5cc(C(F)(F)F)cc(C(F)(F)F)c5)[C@H](Cc5ccccc5)C4)CC3)CC2)cc1` [Compound 124], the IC50 on NK2 is approximately 2570 nM; on NK1 it was 23.4 nM; on NK3, 1780 nM.
Consider `CS(=O)(=O)c1ccccc1S(=O)(=O)N1CCC2(CCN([C@H]3CCN(C(=O)c4cc(C(F)(F)F)cc(C(F)(F)F)c4)[C@H](Cc4ccccc4)C3)CC2)CC1` [Compound 125], for which the IC50 was 5130 nM on NK2, 158 nM at NK1 and 6920 nM at NK3.
For the molecule `O=C(c1cc(C(F)(F)F)cc(C(F)(F)F)c1)N1CC[C@H](N2CCC3(CC2)CCN(S(=O)(=O)Cc2ccccc2)CC3)C[C@H]1Cc1ccccc1` [Compound 126], the IC50 on NK2 is 3390 nM; on NK1, 33.1 nM; on NK3, 3980 nM.
With `O=C(c1cc(C(F)(F)F)cc(C(F)(F)F)c1)N1CC[C@H](N2CCC3(CC2)CCN(S(=O)(=O)Cc2cccc(Cl)c2)CC3)C[C@H]1Cc1ccccc1` [Compound 127], the IC50 was 4680 nM on NK2, 263 nM at NK1 and more than 10000 nM at NK3.
Turning to `O=C(c1cc(C(F)(F)F)cc(C(F)(F)F)c1)N1CC[C@H](N2CCC3(CC2)CCN(S(=O)(=O)C=Cc2ccccc2)CC3)C[C@H]1Cc1ccccc1` [Compound 128], the results for the IC50 on NK2, at NK1 and on NK3 were 5370 nM, 562 nM and more than 10000 nM, respectively.
The corresponding values for `O=C(C1CC1)N1CCC2(CC1)CCN([C@H]1CCN(C(=O)c3cc(C(F)(F)F)cc(C(F)(F)F)c3)[C@H](Cc3ccc(Cl)c(Cl)c3)C1)CC2` [Compound 131] are 776 nM, 17.4 nM and 1410 nM.
Consider `O=C(C1CCOC1)N1CCC2(CC1)CCN([C@H]1CCN(C(=O)c3cc(C(F)(F)F)cc(C(F)(F)F)c3)[C@H](Cc3ccc(Cl)c(Cl)c3)C1)CC2` (stereo partly drawn) [Compound 132], for which the IC50 is 1700 nM on NK2, 9.55 nM on NK1 and 912 nM on NK3.
The corresponding values for `O=C(c1ccsc1)N1CCC2(CC1)CCN([C@H]1CCN(C(=O)c3cc(C(F)(F)F)cc(C(F)(F)F)c3)[C@H](Cc3ccc(Cl)c(Cl)c3)C1)CC2` [Compound 133] are 3720 nM, 53.7 nM and 4900 nM.
For `O=C(C1CC1)N1CCC2(CC1)CCN([C@H]1CCN(C(=O)c3cc(C(F)(F)F)cc(C(F)(F)F)c3)[C@H](Cc3ccc(F)c(F)c3)C1)CC2` [Compound 136], the IC50 was 2000 nM on NK2, 17 nM at NK1 and 692 nM on NK3.
For the molecule `O=C(C1CCOC1)N1CCC2(CC1)CCN([C@H]1CCN(C(=O)c3cc(C(F)(F)F)cc(C(F)(F)F)c3)[C@H](Cc3ccc(F)c(F)c3)C1)CC2` (stereo partly drawn) [Compound 137], the figures for the IC50 on NK2, at NK1 and on NK3 were 3470 nM, 27.5 nM and 1700 nM, respectively.
Consider `CC1(C)OC(=O)CC1C(=O)N1CCC2(CC1)CCN([C@H]1CCN(C(=O)c3cc(C(F)(F)F)cc(C(F)(F)F)c3)[C@H](Cc3ccc(F)c(F)c3)C1)CC2` (stereo partly drawn) [Compound 138], for which the IC50 at NK2 was 4680 nM; at NK1, 17.8 nM; at NK3 it was more than 10000 nM.
The corresponding values for `O=C1CCC(C(=O)N2CCC3(CC2)CCN([C@H]2CCN(C(=O)c4cc(C(F)(F)F)cc(C(F)(F)F)c4)[C@H](Cc4ccc(F)c(F)c4)C2)CC3)N1` (stereo partly drawn) [Compound 139] are 2400 nM, 38.9 nM and 955 nM.
Consider `O=C(c1ccoc1)N1CCC2(CC1)CCN([C@H]1CCN(C(=O)c3cc(C(F)(F)F)cc(C(F)(F)F)c3)[C@H](Cc3ccc(F)c(F)c3)C1)CC2` [Compound 140], for which the figures for the IC50 on NK2, at NK1 and at NK3 were 3470 nM, 23.4 nM and 2450 nM, respectively.
As to `O=C(c1ccsc1)N1CCC2(CC1)CCN([C@H]1CCN(C(=O)c3cc(C(F)(F)F)cc(C(F)(F)F)c3)[C@H](Cc3ccc(F)c(F)c3)C1)CC2` [Compound 141], the IC50 on NK2 was 5890 nM; at NK1 it was 41.7 nM; at NK3 it was 7080 nM.
Take `CC(C)S(=O)(=O)N1CCC2(CCN([C@H]3CCN(C(=O)c4cc(C(F)(F)F)cc(C(F)(F)F)c4)[C@H](Cc4ccccc4)C3)CC2)CC1` [Compound 167]: the values for the IC50 on NK2, on NK1 and at NK3 were 2040 nM, 56.2 nM and 1950 nM, respectively.
As to `O=C(C1CC1)N1CCCC2(CCN([C@H]3CCN(C(=O)c4cc(C(F)(F)F)cc(C(F)(F)F)c4)[C@H](Cc4ccccc4)C3)CC2)C1` [Compound 172], the figures for the IC50 at NK2, on NK1 and on NK3 were 6920 nM, 93.3 nM and 5750 nM, respectively.
Take `O=C(C1CC1)N1CCCC2(CCN([C@@H]3CCN(C(=O)c4cc(C(F)(F)F)cc(C(F)(F)F)c4)[C@H](Cc4ccccc4)C3)CC2)C1` [Compound 173]: the values for the IC50 at NK2, on NK1 and at NK3 were approximately 1620 nM, 30.9 nM and more than 10000 nM, respectively.
Take `O=C(C1CCOC1)N1CCCC2(CCN([C@H]3CCN(C(=O)c4cc(C(F)(F)F)cc(C(F)(F)F)c4)[C@H](Cc4ccccc4)C3)CC2)C1` (stereo partly drawn) [Compound 174]: the figures for the IC50 on NK2, at NK1 and at NK3 were 6920 nM, 40.7 nM and more than 10000 nM, respectively.
Regarding `O=C(c1ccsc1)N1CCCC2(CCN([C@H]3CCN(C(=O)c4cc(C(F)(F)F)cc(C(F)(F)F)c4)[C@H](Cc4ccccc4)C3)CC2)C1` [Compound 175], the IC50 is 4470 nM on NK2, 15.5 nM at NK1 and more than 10000 nM on NK3.
Take `O=C(c1ccco1)N1CCCC2(CCN([C@H]3CCN(C(=O)c4cc(C(F)(F)F)cc(C(F)(F)F)c4)[C@H](Cc4ccccc4)C3)CC2)C1` [Compound 176]: the values for the IC50 on NK2, at NK1 and at NK3 were approximately 6460 nM, 72.4 nM and more than 10000 nM, respectively.
The corresponding values for `O=C(c1cc(C(F)(F)F)cc(C(F)(F)F)c1)N1CC[C@H](CN2CCC3(CCN(Cc4ccccc4)CC3)CC2)C[C@H]1Cc1ccccc1` [Compound 178] are 4900 nM, 437 nM and more than 10000 nM.
On to `O=C(C1CC1)N1CCC2(CCN(C[C@H]3CCN(C(=O)c4cc(C(F)(F)F)cc(C(F)(F)F)c4)[C@H](Cc4ccccc4)C3)CC2)CC1` [Compound 179], for which the IC50 at NK2 was more than 10000 nM; on NK1, 58.9 nM; on NK3, more than 10000 nM.
Take `O=C(C1CCOC1)N1CCC2(CCN(C[C@H]3CCN(C(=O)c4cc(C(F)(F)F)cc(C(F)(F)F)c4)[C@H](Cc4ccccc4)C3)CC2)CC1` (stereo partly drawn) [Compound 180]: the results for the IC50 on NK2, on NK1 and at NK3 were 8320 nM, 14.8 nM and more than 10000 nM, respectively.
On to `CC(C)(C)OC(=O)N1CCCC1C(=O)N1CCC2(CCN(C[C@H]3CCN(C(=O)c4cc(C(F)(F)F)cc(C(F)(F)F)c4)[C@H](Cc4ccccc4)C3)CC2)CC1` (stereo partly drawn) [Compound 181], for which the IC50 on NK2 was 7080 nM; at NK1 it was 33.9 nM; on NK3, more than 10000 nM.
Consider `O=C(c1ccsc1)N1CCC2(CCN(C[C@H]3CCN(C(=O)c4cc(C(F)(F)F)cc(C(F)(F)F)c4)[C@H](Cc4ccccc4)C3)CC2)CC1` [Compound 182], for which the IC50 at NK2 is more than 10000 nM; on NK1, 38 nM; on NK3, 9120 nM.
As to `Cc1nnsc1C(=O)N1CCC2(CCN(C[C@H]3CCN(C(=O)c4cc(C(F)(F)F)cc(C(F)(F)F)c4)[C@H](Cc4ccccc4)C3)CC2)CC1` [Compound 183], the values for the IC50 at NK2, on NK1 and on NK3 were 7760 nM, 17 nM and 7410 nM, respectively.
